{"source": "patent US20060106102A1", "about": "“Napththalene derivatives which inhibit the cytokine or biological activity of microphage migration inhibitory factor (mif)” (priority 2002, published 2006)", "tested_on": "recombinant human macrophage migration inhibitory factor (MIF)-induced proliferation of S112 human dermal fibroblasts", "assay": "MIF-induced proliferation of S112 human dermal fibroblasts, 3H-thymidine incorporation", "assay_type": "cell-based", "method": "The activity of each compound was studied in a bioassay utilising MIF-induced proliferation of human dermal fibroblasts. S112 human dermal fibroblasts were propagated in RPMI/10% foetal calf serum (FCS). Prior to experimentation, cells were seeded at 10^5 cells/ml in RPMI/0.1% BSA for 18 hours. At time point zero, culture medium was replaced with RPMI/10% FCS and treatments administered. Cells were treated with recombinant human macrophage migration inhibitory factor (MIF) 50 ng/ml (1.353×10^−9 M) and/or the compound at a 1 or 1000 molar ratio to the concentration of MIF. In some experiments the compound was combined with MIF at time point −30 minutes, prior to adding at time point zero. At time point 30 hours, cells were pulsed with […]. At time point 48 hours, cells were harvested using a semi-automated cell harvester. The radioactivity incorporated into DNA was determined by liquid scintillation counting, with results expressed as [^3H] thymidine incorporation. The proliferation of untreated cells was expressed as 100% and the effect of MIF and each compound expressed in relative %.\nThe activity of compound 5 was studied in a bioassay utilising MIF-induced proliferation of human dermal fibroblasts. S112 human dermal fibroblasts were propagated in RPMI/10% foetal calf serum (FCS). Prior to experimentation, cells were seeded at 10^5 cells/ml in RPMII/0.1% BSA for 18 hours. At time point zero, culture medium was replaced with RPMI/10% FCS and treatments administered. Cells were treated with recombinant human macrophage migration inhibitory factor (MIF) 50 ng/ml and/or compound 5 at a 1-1000 molar ratio to the concentration of MIF. At a time point 30 hours later, cells were pulsed with 1 μCi/well of ^3H-thymidine. At a time point 48 hours after commencement of the experiment, cells were harvested using a semi-automated cell harvester. The radioactivity incorporated into DNA was determined by liquid scintillation counting, with results expressed as [^3H] thymidine incorporation."}
{"smiles": "O=S(=O)(O)c1ccc2cc(O)c(O)cc2c1", "note": "[Compound 6, 6,7-dihydroxynaphthalene-2-sulfonic acid]", "values": [{"measurement": "effect on proliferation of S112 cells treated with recombinant human MIF (FIG. 12)", "setting": "0.013-1.3 μM, six separate experiments", "result": "marked inhibitory effect"}, {"measurement": "inhibition at 0.13 µM", "setting": "Homo sapiens, Fibroblast, concentration 0.13 μM, rhMIF 50 ng/ml, S112 cells, read-out: % inhibition of proliferation compared to vehicle plus rhMIF-treated cells", "result": 47, "unit": "%"}]}
